Reference: patent publication US7494821B2, “Fluorescein based sensors for tracking nitric oxide in live cells” (Massachusetts Institute of Technology, priority 2005, dated 2009)

Tests used:
[1] = Fluorescence response to NO in buffered aqueous solution; settings: for fluorescence on reaction with NO-releasing agent SNAP: pH 7.0 (50 mM PIPES, 100 mM KCl), 30 min time interval
Method: FIG. 5 depicts the fluorescence response of Cu(FL5) to NO. Fluorescence emission spectra (λex=503 nm) of a deoxygenated 1 μM solution of Cu(FL5) in buffered solution (50 mM PIPES, pH 7.0, 100 mM KCl) before (dashed line), immediately, 1, 2 and 5 min after (solid lines) admission of 1300 equiv of NO (g) at 37° C.
The fluorescence of a 1 μM FL5 solution was diminished by 18±3% upon introduction of an equimolar quantity of CuCl2 at 37° C. Addition of excess NO to a buffered aqueous Cu(FL5) solution led to an immediate 11.2±1.5-fold increase in fluorescence (FIG. 5). […] The lower detection limit for NO is 5 nM.
A commercially available NO probe, DAF-2 (o-diaminofluorescein), was used for comparison with Cu(FL5). The fluorescence of DAF-2 is unchanged in the presence of NO and the absence of O2 over a period of 1 h.
As depicted in FIG. 4, NO detection by Cu(FL5) occurs, formally, by nitric oxide-induced reduction of Cu(II) to Cu(I), forming NO^+, which nitrosates the ligand with concomitant dissociation from copper and fluorescence turn-on. The mechanism of turn-on emission of Cu(FL5) by NO was investigated by EPR, UV-vis, NMR and fluorescence spectroscopy and by liquid chromatography-mass spectrometry (LC-MS, low resolution MS).

[2] = tested on: Raw 264.7 murine macrophage cells; assay: Detection of NO produced by iNOS in Raw 264.7 cells (fluorescence imaging); assay type: cell-based
Method: FIG. 8 illustrates Cu(FL5) detection of NO produced by iNOS. (a) NO detection in Raw 264.7 macrophage cells by Cu(FL5). Left to right: Cu(FL5) (1 μM) incubation with cells for 12 h, and 2, 4, 6, 8 h after addition of Cu(FL5) into cells that were pre-stimulated for 4 h with LPS (500 ng mL^−1) and IFN-γ (250 U mL^−1). The times depicted in the figure are the total incubation times with Cu(FL5). Images were taken immediately after removing the media and washing the cells three times with PBS. The instrument used was a Zeiss Axiovert 200M inverted epifluorescence microscope with differential interference contrast (DIC). Top: fluorescence images; bottom: DIC images. (b) Silencing of iNOS by RNAi in Raw 264.7 cells. A plasmid expressing shRNA was constructed to target the mRNA of iNOS. It was transfected into cells. The plasmid vector without insert for RNAi was transfected to establish a control cell line. The expression of iNOS in these two cell lines after stimulated by LPS and IFN-γ for 12 h was investigated by Western blot on the whole cell extracts with antibodies against the protein and actin, which served as loading control (lane 1: cells with control plasmid vector, lane 2: cells with plasmid expressing shRNA for iNOS). (c) NO detection in Raw 264.7 cells with iNOS silenced by RNAi. The two lines in (b) were treated with LPS and IFN-γ for 4 h before 8 h of incubation with Cu(FL5).
In macrophages, nitric oxide is produced by inducible NO synthases (“iNOS”). […] This method colorimetrically determines the concentration of NO2^− resulting from NO oxidation in the extracellular space. Fluorescence detection of NO production by stimulated macrophage cells was also achieved by incubation of the extracellular fluid with DAN and DAFs. These dyes improved the sensitivity of Griess assay, but were unable to reveal NO production inside cells with spatial and temporal fidelity. The present Cu(FL5) construct, however, readily detects NO produced in activated Raw 264.7 cells by fluorescence turn-on. Macrophage cells were incubated with LPS (500 ng/mL) and IFN-γ (250 U/mL) for 4 h, after which 1 μM Cu(FL5) was applied. The fluorescence response was monitored at 2 h intervals by microscopy (FIG. 6a).
To investigate further the origin of fluorescence detected by Cu(FL5), iNOS was silenced in Raw 264.7 cells by short hairpin RNA (shRNA)-induced RNA interference (RNAi) (FIG. 6b).
Raw 264.7, SK-N-SH, and HeLa cells were purchased from the American Type Culture Collection (ATCC). […] The expression of iNOS in Raw 264.7 cells was analyzed by Western blot on the extracts of cells stimulated by LPS and INF-γ. The protein was silenced by short hairpin RNA-induced RNAi and the resulting cell lines were used in fluorescence imaging by Cu(FL5).

[3] = tested on: SK-N-SH human neuroblastoma cells; assay: Detection of NO produced by cNOS in SK-N-SH cells (fluorescence imaging); assay type: cell-based
Method: FIG. 7 illustrates Cu(FL5) detection of NO produced by cNOS. (a) NO detection in SK-N-SH cells by Cu(FL5). Left to right: 25 min incubation of Cu(FL5) (1 μM) and 5, 10, 15, 25 min after co-treatment of Cu(FL5) (1 μM) and 17β-estradiol (100 nM). Images were taken with a Nikon Eclipse TS100 microscope after removing the DMEM media and washing the cells with PBS. Top: fluorescence images; bottom: phase contrast images. (b) Fluorescence intensity (F(t)/FCu(FL5)) from a was plotted against incubation time. (c) NO production with or without of L-NNA. Right: NO detection in cells after 10 min co-incubation of Cu(FL5) (1 μM) and 17β-estradiol (100 nM). Left: NO detection in cells pre-treated with L-NNA for 1 h before addition of Cu(FL5) and 17β-estradiol.
We investigated the ability of Cu(FL5) to detect NO produced in SK-N-SH human neuroblastoma cells under physiological conditions, since constitutive NO synthase (“cNOS”) in this cell line can be activated by estrogen to produce NO. Estrogen administration leads to an increase in the cytosolic Ca(II) concentration that alters the structure of calmodulin, which in turn activates cNOS. The NO-dependent fluorescence response, monitored after simultaneous administration of 17β-estradiol (100 nM) and Cu(FL5) (1 μM) to the cells, was completed within 5 min with a 4.0±0.6-fold increase in fluorescence (FIGS. 5a and b). […] As another control, HeLa cells were co-treated with 17β-estradiol (100 nM) and Cu(FL5) (1 μM).
Raw 264.7, SK-N-SH, and HeLa cells were purchased from the American Type Culture Collection (ATCC). All three cell lines were maintained in Dulbecco's modified Eagles' media (DMEM) (GibcoBRL) containing 10% (v/v) heat-inactivated fetal bovine serum (FBS) (HyClone), 1 mM sodium pyruvate (Sigma), 100 units/ml penicillin, 100 μg/ml streptomycin (Invitrogen), and 0.1 mM nonessential amino acid solution for minimal essential medium (Sigma). All cells were grown at 37° C. in a humidified atmosphere of 10% CO2. A nitrite assay was performed with Griess reagents (Promega) on Raw 264.7 cells grown in DMEM free of phenol red. Calcium sensor fluo-4 AM was purchased from Invitrogen. MTT [3-(4,5-dimethylthiazol-2-yl)-2,5-diphenyltetrazolium bromide] (Sigma-Aldrich) assay was described in Supplementary information. The expression of iNOS in Raw 264.7 cells was analyzed by Western blot on the extracts of cells stimulated by LPS and INF-γ. The protein was silenced by short hairpin RNA-induced RNAi and the resulting cell lines were used in fluorescence imaging by Cu(FL5).

Compound	fluorescence response to NO under both anaerobic and aerobic conditions [1]	lower detection limit for NO [1] [nM]	increase in fluorescence upon addition of excess NO ([1]; buffered aqueous solution, immediate) [fold]	increase in fluorescence upon addition of NO in the presence of excess EDTA ([1]; excess EDTA chelating Cu(II)) [fold]	fluorescence on reaction with NO-releasing agent SNAP [1]	fluorescence on reaction with NO-releasing agent SNAP ([1]; listed as Cu(II)(FL5))	average fluorescence in activated Raw 264.7 cells ([2]; LPS (500 ng/mL) and IFN-γ (250 U/mL) 4 h, then 1 μM Cu(FL5), monitored at 2 h intervals)	fluorescence response in Raw 264.7 cells with iNOS silenced by shRNA vs plasmid vector only ([2]; stimulated by LPS and IFN-γ)	fluorescence response in stimulated Raw 264.7 cells in presence of iNOS inhibitor L-NMA ([2]; vs absence of L-NMA)	increase in fluorescence in SK-N-SH cells ([3]; 17β-estradiol (100 nM) and Cu(FL5) (1 μM) administered simultaneously) [fold]	time to complete fluorescence response in SK-N-SH cells ([3]; 17β-estradiol (100 nM), probe 1 μM) [min]	fluorescence response in presence of cNOS inhibitor L-NNA ([3]; 17β-estradiol-stimulated SK-N-SH cells)	fluorescence enhancement in living cells, both cNOS and iNOS ([3]; both cell lines (Raw 264.7 and SK-N-SH)) [fold]	brightness of NO visualization compared with DAF-2 DA ([3]; estradiol-stimulated neuroblastoma cells)	increase in fluorescence when treated with excess NO over 30 min ([1]; control: no Cu(II), over 30 min) [fold]	turn-on fluorescence emission in stimulated Raw 264.7 cells without Cu(II) ion ([2]; LPS and IFN-γ, 12 h incubation period)	fluorescence in stimulated SK-N-SH cells in the absence of Cu(II) ion ([3]; over a period of 25 min)
Cc1ccc2cccc(NCc3c([O][Cu][Cl])ccc4c(-c5ccccc5C(=O)O)c5cc(Cl)c(=O)cc-5oc34)c2n1 [Cu(FL5)]	immediate fluorescence response	5	11.2±1.5	1.3±0.2	enhanced	turn-on fluorescence	slowly increased over 12 h	much weaker fluorescence response	notably weaker fluorescence response	4.0±0.6	≤ 5	notably weaker fluorescence response	> 4	brighter fluorescence than DAF-2 DA	–	–	–
Cc1ccc2cccc(NCc3c(O)ccc4c(-c5ccccc5C(=O)O)c5cc(Cl)c(=O)cc-5oc34)c2n1 [FL5, 2-{2-chloro-6-hydroxy-5-[(2-methyl-quinolin-8-ylamino)-methyl]-3-oxo-3H-xanthen-9-yl}-benzoic acid]	–	–	–	–	–	–	–	–	–	–	–	–	–	–	1.5±0.2	not observed	no fluorescence increase
